Read-outs that look alike come from different tables or passages of the source.
Legend:
[1] = logP by reversed-phase HPLC (EEC Directive 79/831 Annex V.A8); type: physicochemical; settings: for chromatographic logP: reversed-phase C18 HPLC column
Method: The logP values were determined in accordance with EEC Directive 79/831 Annex V.A8 by HPLC (High Performance Liquid Chromatography) using reversed-phase columns (C 18) by the following methods:
^[a] The LC-MS determination in the acidic range was effected at pH 2.7 with 0.1% aqueous formic acid and acetonitrile (contains 0.1% formic acid) as eluents; linear gradient from 10% acetonitrile to 95% acetonitrile. Called logP (HCOOH) in the table.
^[b] LC-MS determination in the neutral range was effected at pH 7.8 with 0.001 molar aqueous ammonium hydrogencarbonate solution and acetonitrile as eluents; linear gradient from 10% acetonitrile to 95% acetonitrile. Called logP (neutral) in the table.
Calibration was effected with unbranched alkan-2-ones (having 3 to 16 carbon atoms) with known logP values (logP values determined on the basis of the retention times by linear interpolation between two successive alkanones).

Tetranychus urticae [2] = assay: Tetranychus urticae drench test, OP-resistant; type: in vivo; settings: application rate 4 ppm, after 14 days, bean plants in soil
Method: 6. Tetranychus urticae—Drench Test, OP-Resistant Solvent: 7 parts by weight of dimethylformamide Emulsifier: 2 parts by weight of alkylaryl polyglycol ether
To produce a suitable preparation of active compound, 1 part by weight of active compound is mixed with the stated amounts of solvent and emulsifier, and the concentrate is diluted with water to the desired concentration, where the volume of soil to be drenched has to be taken into account. Here, it has to be made sure that a concentration of 40 ppm of emulsifier in the soil is not exceeded. To produce further test concentrations, the mixture is diluted with water.
Bean plants (Phaseolus vulgaris) in pots filled with soil, which plants are heavily infested by all stages of the greenhouse red spider mite (Tetranychus urticae), are watered with an active compound preparation of the desired concentration.
After 14 days, the efficacy in % is assessed. 100% means that all spider mites have been killed; 0% means that none of the spider mites have been killed.

Phaedon cochleariae = Phaedon cochleariae spray test; type: in vivo; settings: application rate 500 g/ha, after 7 days, Chinese cabbage leaf discs
Method: 3. Phaedon cochleariae—Spray Test Solvent: 78.0 parts by weight of acetone • • 1.5 parts by weight of dimethylformamide Emulsifier: alkylaryl polyglycol ether
(§1) To produce a suitable preparation of active compound, 1 part by weight of active compound is dissolved using the stated parts by weight of solvent and made up with water containing an emulsifier concentration of 1000 ppm until the desired concentration is attained. To produce further test concentrations, the preparation is diluted with emulsifier-containing water.
After 7 days, the efficacy in % is determined. 100% means that all the beetle larvae have been killed; 0% means that no beetle larvae have been killed.

Meloidogyne incognita = Meloidogyne incognita test (sand, lettuce, solvent acetone); type: in vivo; settings: application rate 20 ppm, after 14 days, lettuce in sand
Method: 2. Meloidogyne incognita Test Solvent: 125.0 parts by weight of acetone To produce a suitable preparation of active compound, 1 part by weight of active compound is mixed with the stated amount of solvent and the concentrate is diluted with water to the desired concentration. Vessels are filled with sand, active compound solution, an egg/larvae suspension of the southern root-knot nematode (Meloidogyne incognita) and lettuce seeds. The lettuce seeds germinate and the plants develop. The galls develop on the roots. After 14 days, the nematicidal efficacy in % is determined by the formation of galls. 100% means that no galls were found; 0% means that the number of galls on the treated plants corresponds to the untreated control.

Tetranychus urticae [3] = assay: Tetranychus urticae spray test, OP-resistant (bean plants); type: in vivo; settings: application rate 20 ppm, after 7 days
Method: 5. Tetranychus urticae-Spray Test, OP-Resistant Solvent: 7 parts by weight of dimethylformamide Emulsifier: alkylaryl polyglycol ether
as §1, with “water. If the addition of ammonium salts or/and penetrants is required, these are each added in a concentration of 1000 ppm to the preparation solution.” for “water.”
Bean plants (Phaseolus vulgaris) heavily infested by all stages of the greenhouse red spider mite (Tetranychus urticae) are sprayed with an active compound preparation of the desired concentration.
After 7 days, the efficacy in % is determined. 100% means that all the spider mites have been killed; 0% means that none of the spider mites have been killed.

Boophilus microplus = Boophilus microplus injection test; type: in vivo; settings: application rate, injection into engorged adult female cattle ticks, after 7 days
Method: 1. Boophilus microplus—Injection Test Solvent: dimethyl sulphoxide
To produce a suitable preparation of active compound, 10 mg of active compound are mixed with 0.5 ml of solvent and the concentrate is diluted with solvent to the desired concentration.
1 μl of the active compound solution is injected into the abdomen of 5 engorged adult female cattle ticks (Boophilus microplus). The animals are transferred into dishes and kept in a climate-controlled room.
Efficacy is assessed after 7 days by laying of fertile eggs. Eggs which are not visibly fertile are stored in a climate-controlled cabinet until the larvae hatch after about 42 days. An efficacy of 100% means that none of the ticks has laid any fertile eggs; 0% means that all the eggs are fertile.

Tetranychus urticae [4] = assay: Tetranychus urticae spray test, OP-resistant (bean leaf discs); type: in vivo; settings: application rate 500 g/ha, after 6 days
Method: 4. Tetranychus urticae—Spray Test, OP-Resistant Solvent: 78.0 parts by weight of acetone • • 1.5 parts by weight of dimethylformamide Emulsifier: alkylaryl polyglycol ether
as §1
Discs of bean leaves (Phaseolus vulgaris) infested with all stages of the greenhouse red spider mite (Tetranychus urticae) are sprayed with an active compound preparation of the desired concentration.
After 6 days, the efficacy in % is determined. 100% means that all the spider mites have been killed; 0% means that none of the spider mites have been killed.

[5] = acidic range, pH 2.7, 0.1% aqueous formic acid/acetonitrile, read-out: logP (HCOOH) = logP[a]
[6] = neutral range, pH 7.8, 0.001 molar aqueous ammonium hydrogencarbonate/acetonitrile, read-out: logP (neutral) = logP[b]
[7] = acidic range, pH 2.7, 0.1% aqueous formic acid/acetonitrile
[8] = neutral range, pH 7.8, 0.001 molar aqueous ammonium hydrogencarbonate/acetonitrile

Cc1cc(F)c(-c2cc(=O)n(C)c(=O)n2C)cc1SCC(F)(F)F [Example I-2, 6-{2-Fluoro-4-methyl-5-[(2,2,2-trifluoroethyl)sulphanyl]phenyl}-1,3-dimethylpyrimidine-2,4(1H,3H)-dione]
chromatographic logP [1, 5]: 2.86
chromatographic logP [1, 6]: 2.74
efficacy (spider mites killed) (Tetranychus urticae [2]): 99%
efficacy (beetle larvae killed) (Phaedon cochleariae): 83%
nematicidal efficacy (formation of galls) (Meloidogyne incognita): 90%
efficacy (spider mites killed) (Tetranychus urticae [3]): 100%
efficacy (no fertile eggs laid) (Boophilus microplus): 100%
efficacy (spider mites killed) (Tetranychus urticae [4]): 100%

CCn1c(=O)c(F)c(-c2cc(SCC(F)(F)F)c(C)cc2F)n(C)c1=O [Example I-3, 3-Ethyl-5-fluoro-6-{2-fluoro-4-methyl-5-[(2,2,2-trifluoroethyl)-sulphanyl]phenyl}-1-methylpyrimidine-2,4(1H,3H)-dione]
chromatographic logP [1, 5]: 3.32
chromatographic logP [1, 6]: 3.42

Cc1cc(C)c(-c2cc(=O)n(C)c(=O)n2C)cc1SCC(F)(F)F [Example I-4]
chromatographic logP [1, 5]: 2.98

CCCn1c(-c2cc(SCC(F)(F)F)c(C)cc2F)cc(=O)n(CCC)c1=O [Example I-5]
logP (HCOOH) = logP[a] [1, 7]: 4.26
logP (neutral) = logP[b] [1, 8]: 4.16
efficacy (spider mites killed) (Tetranychus urticae [4]): 90%

Cc1cc(F)c(-c2cc(=O)n(C(C)C)c(=O)n2C(C)C)cc1SCC(F)(F)F [Example I-6]
logP (HCOOH) = logP[a] [1, 7]: 4.52
logP (neutral) = logP[b] [1, 8]: 4.42
efficacy (spider mites killed) (Tetranychus urticae [4]): 100%

CCn1c(-c2cc(SCC(F)(F)F)c(C)cc2F)cc(=O)n(CC)c1=O [Example I-7]
logP (HCOOH) = logP[a] [1, 7]: 3.54
logP (neutral) = logP[b] [1, 8]: 3.47
efficacy (spider mites killed) (Tetranychus urticae [3]): 100%
efficacy (spider mites killed) (Tetranychus urticae [4]): 90%

CCn1c(=O)[nH]c(-c2cc(SCC(F)(F)F)c(C)cc2F)c(F)c1=O [Example I-8]
logP (HCOOH) = logP[a] [1, 7]: 2.72

Cc1cc(F)c(-c2cc(=O)n(C(C)C)c(=O)n2C(C)C)cc1[S+]([O-])CC(F)(F)F (stereo not drawn) [Example I-9]
logP (HCOOH) = logP[a] [1, 7]: 3.19
logP (neutral) = logP[b] [1, 8]: 3.10
efficacy (no fertile eggs laid) (Boophilus microplus): 100%
efficacy (spider mites killed) (Tetranychus urticae [4]): 100%

CCn1c(-c2cc([S+]([O-])CC(F)(F)F)c(C)cc2F)cc(=O)n(CC)c1=O (stereo not drawn) [Example I-10]
logP (HCOOH) = logP[a] [1, 7]: 2.37
logP (neutral) = logP[b] [1, 8]: 2.28
efficacy (spider mites killed) (Tetranychus urticae [2]): 95%
efficacy (spider mites killed) (Tetranychus urticae [3]): 100%
efficacy (no fertile eggs laid) (Boophilus microplus): 100%
efficacy (spider mites killed) (Tetranychus urticae [4]): 100%

CCn1c(=O)c(F)c(-c2cc([S+]([O-])CC(F)(F)F)c(C)cc2F)n(C)c1=O (stereo not drawn) [Example I-11]
logP (HCOOH) = logP[a] [1, 7]: 2.20
logP (neutral) = logP[b] [1, 8]: 2.19
efficacy (no fertile eggs laid) (Boophilus microplus): 100%
efficacy (spider mites killed) (Tetranychus urticae [4]): 100%

Cc1cc(C)c([S+]([O-])CC(F)(F)F)cc1-c1cc(=O)n(C)c(=O)n1C (stereo not drawn) [Example I-12]
logP (HCOOH) = logP[a] [1, 7]: 1.89
logP (neutral) = logP[b] [1, 8]: 1.82
efficacy (no fertile eggs laid) (Boophilus microplus): 100%
efficacy (spider mites killed) (Tetranychus urticae [4]): 100%

Cc1cc(F)c(-c2cc(=O)n(C)c(=O)[nH]2)cc1SCC(F)(F)F [Example I-13, 6-{2-Fluoro-4-methyl-5-[(2,2,2-trifluoroethyl)sulphanyl]phenyl}-3-methylpyrimidine-2,4(1H,3H)-dione]
chromatographic logP [1, 5]: 2.38
chromatographic logP [1, 6]: 2.25

Cc1cc(F)c(-c2cc(=O)[nH]c(=S)[nH]2)cc1SCC(F)(F)F [Example I-14, 6-{2-Fluoro-4-methyl-5-[(2,2,2-trifluoroethyl)sulphanyl]phenyl}-2-thioxo-2,3-dihydropyrimidin-4(1H)-one]
chromatographic logP [1, 5]: 2.34
chromatographic logP [1, 6]: 1.54

Cc1cc(F)c(-c2cc(=O)n(CC(F)(F)F)c(=S)n2C)cc1SCC(F)(F)F [Example I-15]
logP (HCOOH) = logP[a] [1, 7]: 4.34
efficacy (spider mites killed) (Tetranychus urticae [2]): 100%
efficacy (beetle larvae killed) (Phaedon cochleariae): 100%
efficacy (spider mites killed) (Tetranychus urticae [3]): 100%
efficacy (spider mites killed) (Tetranychus urticae [4]): 90%

Cc1cc(F)c(-c2c(Cl)c(=O)n(C)c(=O)n2C)cc1SCC(F)(F)F [Example I-16, 5-Chloro-6-{2-fluoro-4-methyl-5-[(2,2,2-trifluoroethyl)sulphanyl]phenyl}-1,3-dimethylpyrimidine-2,4(1H,3H)-dione]
chromatographic logP [1, 5]: 3.15
efficacy (spider mites killed) (Tetranychus urticae [4]): 90%

Cc1cc(F)c(-c2cc(=O)n(C)c(=O)[nH]2)cc1[S+]([O-])CC(F)(F)F (stereo not drawn) [Example I-17]
logP (HCOOH) = logP[a] [1, 7]: 1.41
logP (neutral) = logP[b] [1, 8]: 1.43

CCn1c(=O)c(F)c(Cl)n(C)c1=O [II-01, 6-chloro-3-ethyl-5-fluoro-1-methylpyrimidine-2,4(1H,3H)-dione]
chromatographic logP [1, 5]: 1.31

CCn1c(=O)c(C)c(Cl)n(C)c1=O [II-02, 6-chloro-3-ethyl-1,5-dimethylpyrimidine-2,4(1H,3H)-dione]
chromatographic logP [1, 5]: 1.59

CCOC(=O)CC(=O)c1cc(SCC(F)(F)F)c(C)cc1F [VI-01, ethyl 3-{2-fluoro-4-methyl-5-[(2,2,2-trifluoroethyl)sulphanyl]phenyl}-3-oxopropanoate]
chromatographic logP [1, 5]: 3.57
chromatographic logP [1, 6]: 3.59

Reference: patent US20170327471A1, “Aryl sulphide and aryl sulphoxide derivatives having C-C-attached uracils as pesticides” (BAYER CROPSCIENCE AKTIENGESELLSCHAFT, priority 2014, published 2017)
